Among the data in ChEMBL document CHEMBL1144217, “Design, synthesis and characterization of podocarpate derivatives as openers of BK channels” (Bioorg Med Chem Lett, 2008) are Activity values, retold here.

Sequence of Calcium-activated potassium channel subunit alpha-1 (Homo sapiens) (Q12791 whole entry): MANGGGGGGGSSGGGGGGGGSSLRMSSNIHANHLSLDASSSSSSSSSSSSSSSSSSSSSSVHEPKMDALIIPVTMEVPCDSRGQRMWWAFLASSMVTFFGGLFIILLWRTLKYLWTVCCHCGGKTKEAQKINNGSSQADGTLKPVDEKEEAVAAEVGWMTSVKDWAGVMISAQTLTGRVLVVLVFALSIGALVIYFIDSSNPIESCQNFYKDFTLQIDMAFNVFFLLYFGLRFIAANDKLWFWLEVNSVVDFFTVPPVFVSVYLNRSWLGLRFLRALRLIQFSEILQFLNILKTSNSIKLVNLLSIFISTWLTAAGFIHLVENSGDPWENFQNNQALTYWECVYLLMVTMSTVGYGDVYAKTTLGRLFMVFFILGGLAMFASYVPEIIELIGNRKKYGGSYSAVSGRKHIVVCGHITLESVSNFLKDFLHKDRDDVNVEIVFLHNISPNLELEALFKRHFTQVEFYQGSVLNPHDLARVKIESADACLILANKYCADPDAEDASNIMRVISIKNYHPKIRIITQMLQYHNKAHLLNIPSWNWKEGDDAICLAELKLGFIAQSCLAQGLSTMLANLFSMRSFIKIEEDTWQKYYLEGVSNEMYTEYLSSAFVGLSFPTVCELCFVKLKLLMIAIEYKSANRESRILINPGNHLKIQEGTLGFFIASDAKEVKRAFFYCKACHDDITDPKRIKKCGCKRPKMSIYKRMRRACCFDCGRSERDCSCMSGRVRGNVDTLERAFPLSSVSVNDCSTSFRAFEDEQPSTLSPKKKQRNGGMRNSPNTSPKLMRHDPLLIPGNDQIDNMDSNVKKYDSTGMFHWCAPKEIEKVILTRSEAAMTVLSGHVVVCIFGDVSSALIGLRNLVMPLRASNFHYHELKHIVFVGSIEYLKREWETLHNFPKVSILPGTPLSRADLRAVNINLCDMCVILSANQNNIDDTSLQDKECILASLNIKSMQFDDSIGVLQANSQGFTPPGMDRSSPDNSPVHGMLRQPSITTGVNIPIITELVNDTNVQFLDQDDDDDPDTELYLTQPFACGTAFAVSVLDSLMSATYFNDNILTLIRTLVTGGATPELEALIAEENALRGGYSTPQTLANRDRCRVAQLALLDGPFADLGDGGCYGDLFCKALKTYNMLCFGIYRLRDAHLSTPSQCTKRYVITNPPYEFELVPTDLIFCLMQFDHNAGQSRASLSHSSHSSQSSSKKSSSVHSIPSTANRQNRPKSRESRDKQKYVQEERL

The assay has as its target Calcium-activated potassium channel subunit alpha-1 (Homo sapiens) (UniProt Q12791). Kind of assay: Activation of human BKalpha channel expressed in CHOK1 cells assessed as increase in ionic current at 30 uM relative to control. The format is cell-based. Particulars: CHO-K1.
As for `C[C@]1(C(=O)O)CCC[C@]2(C)c3cc(OCc4ccc(C#N)cc4)ccc3CC[C@@H]12`, the Activity was determined as 116%.
`CC(C)(C)c1ccc(COc2ccc3c(c2)[C@@]2(C)CCC[C@](C)(C(=O)O)[C@@H]2CC3)cc1`: the Activity is 116%.
Regarding `C[C@]1(C(=O)O)CCC[C@]2(C)c3cc(OCc4ccc(OC(F)(F)F)cc4)ccc3CC[C@@H]12`, the Activity came out at 139%.
As for `C=CCOc1ccc2c(c1)[C@@]1(C)CCC[C@](C)(C(=O)O)[C@@H]1CC2`, the figure is 148%; as for `CC(C)Oc1ccc2c(c1)[C@@]1(C)CCC[C@](C)(C(=O)O)[C@@H]1CC2`, 134%; as for `COc1ccc2c(c1)[C@@]1(C)CCC[C@](C)(C(=O)O)[C@@H]1CC2`, 124%.
Under `C[C@]1(C(=O)O)CCC[C@]2(C)c3cc(OCc4ccc(Cl)cc4)ccc3CC[C@@H]12` stands 121%; under `C[C@]1(C(=O)O)CCC[C@]2(C)c3cc(OCCN4CCCCC4)ccc3CC[C@@H]12`, 103%.
On to `COc1ccc(COc2ccc3c(c2)[C@@]2(C)CCC[C@](C)(C(=O)O)[C@@H]2CC3)cc1`, for which the Activity was 109%.
Under `Cc1ccc(COc2ccc3c(c2)[C@@]2(C)CCC[C@](C)(C(=O)O)[C@@H]2CC3)cc1` stands 151%.
Take `CCCOc1ccc2c(c1)[C@@]1(C)CCC[C@](C)(C(=O)O)[C@@H]1CC2`: the Activity worked out at 170%.
Under `COC(=O)[C@@]1(C)CCC[C@]2(C)c3cc(OCCCc4ccccc4)ccc3CC[C@@H]12` stands 116%; under `C[C@]1(C(=O)O)CCC[C@]2(C)c3cc(OCc4ccc5ccccc5c4)ccc3CC[C@@H]12`, 122%.
For the compound `C[C@]1(C(=O)O)CCC[C@]2(C)c3cc(O)ccc3CC[C@@H]12`, the Activity was found to be 207%.
In the case of `CC(C)c1ccc(COc2ccc3c(c2)[C@@]2(C)CCC[C@](C)(C(=O)O)[C@@H]2CC3)cc1`, the Activity is 125%.
`COC(=O)[C@@]1(C)CCC[C@]2(C)c3cc(O)ccc3CC[C@@H]12`: the Activity was found to be 118%.
As for `C[C@]1(C(=O)O)CCC[C@]2(C)c3cc(OCC4CCCCC4)ccc3CC[C@@H]12`, the Activity turned out to be 124%.
Consider `Cc1ccccc1COc1ccc2c(c1)[C@@]1(C)CCC[C@](C)(C(=O)O)[C@@H]1CC2`, for which the Activity is 88.9%.
With `C[C@]1(C(=O)O)CCC[C@]2(C)c3cc(OCc4ccccc4)ccc3CC[C@@H]12`, the Activity was 209%.
Take `C[C@]1(C(=O)O)CCC[C@]2(C)c3cc(OCCOCc4ccccc4)ccc3CC[C@@H]12`: the Activity was 124%.
Under `C[C@]1(C(=O)O)CCC[C@]2(C)c3cc(OCc4ccc(C(F)(F)F)cc4)ccc3CC[C@@H]12` stands 185%.
In the case of `Cc1cc(C)cc(COc2ccc3c(c2)[C@@]2(C)CCC[C@](C)(C(=O)O)[C@@H]2CC3)c1`, the Activity is 130%.
Under `C[C@]1(C(=O)O)CCC[C@]2(C)c3cc(OCCCc4ccccc4)ccc3CC[C@@H]12` stands 244%.
